Usually IC50 stands for the concentration needed to halve the response being measured.

From patent US20120122931A1, “INDOLE DERIVATIVE OR PHARMACEUTICALLY ACCEPTABLE SALT THEREOF” (KISSEI PHARMACEUTICAL CO., LTD., priority 2009, published 2012) come the findings set out here.

The target in this experiment is T1, rat EP1 receptor (Rattus norvegicus, UniProt P70597).
T1 construct: expressed in transfected cells; host or cells: COS-1 cells, transient transfection with Lipofectamine 2000
T1 sequence (P70597 1-405): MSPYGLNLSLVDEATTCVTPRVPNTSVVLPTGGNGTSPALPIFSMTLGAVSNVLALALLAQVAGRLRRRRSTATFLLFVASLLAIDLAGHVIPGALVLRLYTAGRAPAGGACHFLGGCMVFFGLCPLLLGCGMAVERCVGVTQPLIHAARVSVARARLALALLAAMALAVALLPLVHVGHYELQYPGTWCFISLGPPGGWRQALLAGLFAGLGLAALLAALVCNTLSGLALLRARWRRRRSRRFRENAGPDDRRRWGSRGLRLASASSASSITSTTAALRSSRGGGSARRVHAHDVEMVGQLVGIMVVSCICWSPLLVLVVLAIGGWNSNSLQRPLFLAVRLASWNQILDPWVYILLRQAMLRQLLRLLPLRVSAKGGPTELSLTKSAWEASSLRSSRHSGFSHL
Briefly: Test for confirmation of EP1 receptor antagonism: inhibition of prostaglandin E2-induced increase in intracellular calcium concentration (Method A or Method B). The conditions noted are these: Method B (Calcium kit II Fluo 4, FDSS 7000); rat EP1 receptor-expressing cells; prostaglandin E2 10 nM. It is filed as cell-based. How it is done: (1) Preparation of Rat EP1 Expression vector
Using Rat Kidney BD Marathon-Ready cDNA (Nippon Becton Dickinson Company, Ltd.) as a template, a forward primer shown in SEQ ID NO. 1, and a reverse primer shown in SEQ ID NO. 2, a first run of PCR was carried out using KOD-Plus-Ver 2.0 (Toyobo Co., Ltd.). Further, using this amplification product as a template, a forward primer shown in SEQ ID NO. 3, and a reverse primer shown in SEQ ID NO. 4, a second run of PCR was carried out in the same manner. The amplification product obtained by the second run of PCR was incorporated into a vector (pcDNA3.1 D/V5-His-TOPO (registered trademark), Invitrogen Japan K. K.). By a conventional method, the vector containing this amplification product was introduced to E. coli (One Shot TOP10 Competent Cells, Invitrogen Corporation) to transform. This transformed E. coli was cultured in an LB agar medium for one day. After the culture, colonies were selected and cultured in an LB liquid medium containing 50 μg/mL of ampicillin. After the culture, the vector was purified using a QIAprep Spin Miniprep Kit (Qiagen K. K.). The base sequence of the insertion site of this vector (SEQ ID NO. 5) was compared with the rat EP1 base sequence (Ptger1) registered as an accession number NM_013100 in well-known database (NCBI), and as a result, they all matched except for a single base. Further, the amino acid sequence translated by the base sequence completely matched the amino acid sequence of the rat EP1 receptor registered as an NCBI accession number NP_037232. Therefore, it was confirmed that the cloned gene sequence was a base sequence of the rat EP1 receptor and the obtained amino acid sequence was that of the rat EP1 receptor. The pcDNA3.1 D/V5-His-TOPO (registered trademark) to which the nucleic acid shown in SEQ ID NO. 5 had been inserted was taken as a rat EP1-expressing vector.
(2) Preparation of Rat EP1 Receptor-Expressing Cells
COS-1 cells (Dainippon Sumitomo Pharma Co., Ltd.) were cultured until it reached confluence in an incubator at 37° C. under a 5% CO2 gas condition, using a D-MEM liquid medium (high glucose and L-glutamine contained, Invitrogen Corporation) to which a penicillin-streptomycin solution (Invitrogen Corporation, final concentration: 100 U/mL as benzylpenicillin; 100 μg/mL as streptomycin) as an antibiotic, MEM nonessential amino acids (Invitrogen Corporation, final Concentration: 0.1 mM), and fetal calf serum (Sanko Junyaku Co., Ltd., final concentration: 10%) were added.
(2-2) COS-1 Cell Subculture
The cells that had reached confluence were stripped with 0.05% trypsin/0.53 mM EDTA 4Na (Invitrogen Japan K. K.) and resuspended in the above liquid medium. The resuspended cells were diluted and cultured in the above liquid medium at a spread ratio from 1:4 to 1:8.
(2-3) Preparation of Cells for Introduction of Rat EP1-Expressing Vector
The cells that had reached confluence were stripped with 0.05% trypsin/0.53 mM EDTA.4Na, and resuspended in a D-MEM liquid medium (high glucose and L-glutamine contained, Invitrogen Corporation) to which an MEM nonessential amino acid (final concentration: 0.1 mM) and fetal calf serum (final concentration: 10%) were added. In each well of a Poly D-lysine-coated 96-well microplate (BD BioCoat (registered trademark), Nippon Becton Dickinson Company, Ltd.), this resuspended cell suspension culture was prepared to be 5×10^4 cells/well in 100 μL of the liquid medium, and seeded thereon. After seeding, the cells were cultured in an incubator at 37° C. under a 5% CO2 gas condition. At a point when the cells for introduction of a rat EP1-expressing vector were adhered (about 2 hours after seeding), introduction of the rat EP1-expressing vector was carried out in the following order.
(2-4) Introduction of Rat EP1-Expressing Vector
For introduction of the rat EP1-expressing vector, Lipofectamine 2000 (Invitrogen Japan K. K.) was used. […]
Background: A change in cytosolic calcium serves as a functional read-out for many receptors and channels.
`COc1cc2[nH]c(-c3ccsc3)c(Cc3cccc(C(=O)O)n3)c2cc1F` [Example 16-28, 6-(5-fluoro-6-methoxy-2-thiophen-3-yl-1H-indol-3-ylmethyl)pyridine-2-carboxylic acid]: the IC50 was found to be 30 nM. Under `COc1cc2[nH]c(-c3ccsc3)c(Cc3cccc(C(=O)O)n3)c2cc1Cl` [Example 16-29, 6-(5-chloro-6-methoxy-2-thiophen-3-yl-1H-indol-3-ylmethyl)pyridine-2-carboxylic acid] stands 27 nM; under `O=C(O)c1cccc(Cc2c(-c3ccccc3)[nH]c3cc(Br)ccc23)n1` [Example 16-38], 36 nM; under `Cc1cc2[nH]c(-c3ccccc3)c(Cc3cccc(C(=O)O)n3)c2cc1C` [Example 16-44, 6-(5,6-dimethyl-2-phenyl-1H-indol-3-ylmethyl)pyridine-2-carboxylic acid], 11 nM. Turning to `O=C(O)c1cccc(Cc2c(-c3ccccc3)[nH]c3cc(C(F)(F)F)c(F)cc23)n1` [Example 16-45], the IC50 came out at 26 nM. For `Cc1ccc2c(Cc3cccc(C(=O)O)n3)c(-c3ccc(F)cc3)[nH]c2c1` [Example 16-48, 6-[2-(4-fluorophenyl)-6-methyl-1H-indol-3-ylmethyl]pyridine-2-carboxylic acid], the IC50 stood at 27 nM.

With `Cc1cc2[nH]c(-c3ccsc3)c(Cc3cccc(C(=O)O)n3)c2cc1C` [Example 16-51, 6-(5,6-dimethyl-2-thiophen-3-yl-1H-indol-3-ylmethyl)pyridine-2-carboxylic acid], the IC50 was determined as 14 nM. Turning to `O=C(O)c1cccc(Cc2c(-c3ccsc3)[nH]c3cc(Cl)c(F)cc23)n1` [Example 16-52, 6-(6-chloro-5-fluoro-2-thiophen-3-yl-1H-indol-3-ylmethyl)pyridine-2-carboxylic acid], the IC50 came out at 43 nM. On to `Cc1cc2[nH]c(-c3ccccc3)c(Cc3cccc(C(=O)O)n3)c2cc1F` [Example 16-53, 6-(5-fluoro-6-methyl-2-phenyl-1H-indol-3-ylmethyl)pyridine-2-carboxylic acid], for which the 50% inhibitory concentration (IC50) is 31 nM. For `Cc1cc2[nH]c(-c3ccc(F)cc3)c(Cc3cccc(C(=O)O)n3)c2cc1F` [Example 16-54, 6-[5-fluoro-2-(4-fluorophenyl)-6-methyl-1H-indol-3-ylmethyl]pyridine-2-carboxylic acid], the IC50 worked out at 47 nM.

As for `Cc1cc2[nH]c(-c3ccsc3)c(Cc3cccc(C(=O)O)n3)c2cc1F` [Example 16-56, 6-(5-fluoro-6-methyl-2-thiophen-3-yl-1H-indol-3-ylmethyl)pyridine-2-carboxylic acid], the IC50 was 39 nM.

As to `Cc1cc2[nH]c(-c3cccnc3)c(Cc3cccc(C(=O)O)n3)c2cc1C` [Example 16-58, 6-(5,6-dimethyl-2-pyridin-3-yl-1H-indol-3-ylmethyl)pyridine-2-carboxylic acid], the IC50 was 38 nM.

For the compound `Cc1cc2c(Cc3cccc(C(=O)O)n3)c(-c3ccccc3)[nH]c2cc1Cl` [Example 16-59, 6-(6-chloro-5-methyl-2-phenyl-1H-indol-3-ylmethyl)pyridine-2-carboxylic acid], the IC50 was determined as 19 nM.

With `CCOc1ccc2c(Cc3cccc(C(=O)O)n3)c(-c3ccc(F)cc3)[nH]c2c1` [Example 16-60, 6-[6-ethoxy-2-(4-fluorophenyl)-1H-indol-3-ylmethyl]pyridine-2-carboxylic acid], the IC50 was found to be 32 nM. For `CCOc1ccc2c(Cc3cccc(C(=O)O)n3)c(-c3ccsc3)[nH]c2c1` [Example 16-61, 6-(6-ethoxy-2-thiophen-3-yl-1H-indol-3-ylmethyl)pyridine-2-carboxylic acid], the IC50 was 43 nM. For `O=C(O)c1cccc(Cc2c(-c3ccc(F)cc3)[nH]c3cc(C4CC4)ccc23)n1` [Example 16-62, 6-[6-cyclopropyl-2-(4-fluorophenyl)-1H-indol-3-ylmethyl]pyridine-2-carboxylic acid], the IC50 was 27 nM.

Regarding `O=C(O)c1cccc(Cc2c(-c3ccsc3)[nH]c3cc(C4CC4)ccc23)n1` [Example 16-65, 6-(6-cyclopropyl-2-thiophen-3-yl-1H-indol-3-ylmethyl)pyridine-2-carboxylic acid], the IC50 was 14 nM. Under `COc1cc2[nH]c(-c3cccnc3)c(Cc3cccc(C(=O)O)n3)c2cc1C` [Example 16-66, 6-(6-methoxy-5-methyl-2-pyridin-3-yl-1H-indol-3-ylmethyl)pyridine-2-carboxylic acid] stands 30 nM; under `O=C(O)c1cccc(Cc2c(-c3cccnc3)[nH]c3cc(C4CC4)ccc23)n1` [Example 16-67, 6-(6-cyclopropyl-2-pyridine-3-yl-1H-indol-3-ylmethyl)pyridine-2-carboxylic acid], 22 nM; under `O=C(O)c1cccc(Cc2c(-c3ccccc3)[nH]c3cc(C4CC4)c(F)cc23)n1` [Example 16-68, 6-(6-cyclopropyl-5-fluoro-2-phenyl-1H-indol-3-ylmethyl)pyridine-2-carboxylic acid], 34 nM.

With `O=C(O)c1cccc(Cc2c(-c3ccccc3)[nH]c3cc(OC(F)F)ccc23)n1` [Example 16-73], the IC50 was determined as 23 nM. Under `O=C(O)c1cccc(Cc2c(-c3ccc(F)cc3)[nH]c3cc(C4CC4)c(F)cc23)n1` [Example 16-74, 6-[6-cyclopropyl-5-fluoro-2-(4-fluorophenyl)-1H-indol-3-ylmethyl]pyridine-2-carboxylic acid] stands 47 nM.

Take `O=C(O)c1cccc(Cc2c(-c3ccsc3)[nH]c3cc(C4CC4)c(F)cc23)n1` [Example 16-75, 6-(6-cyclopropyl-5-fluoro-2-thiophen-3-yl-1H-indol-3-ylmethyl)pyridine-2-carboxylic acid]: the IC50 came out at 16 nM. As to `O=C(O)c1cccc(Cc2c(-c3cccnc3)[nH]c3cc(C4CC4)c(F)cc23)n1` [Example 16-76, 6-(6-cyclopropyl-5-fluoro-2-pyridine-3-yl-1H-indol-3-ylmethyl)pyridine-2-carboxylic acid], the IC50 was determined as 20 nM. On to `COc1cc2c(Cc3cccc(C(=O)O)n3)c(-c3ccccc3)[nH]c2cc1C` [Example 16-78, 6-(5-methoxy-6-methyl-2-phenyl-1H-indol-3-ylmethyl)pyridine-2-carboxylic acid], for which the IC50 is 24 nM.

As for `CCOc1cc2[nH]c(-c3ccsc3)c(Cc3cccc(C(=O)O)n3)c2cc1F` [Example 16-79, 6-(6-ethoxy-5-fluoro-2-thiophen-3-yl-1H-indol-3-ylmethyl)pyridine-2-carboxylic acid], the IC50 stood at 22 nM. On to `CCOc1cc2[nH]c(-c3ccccc3)c(Cc3cccc(C(=O)O)n3)c2cc1C` [Example 16-84, 6-(6-ethoxy-5-methyl-2-phenyl-1H-indol-3-ylmethyl)pyridine-2-carboxylic acid], for which the IC50 is 17 nM.
